In patent publication US20240277715A1, “COMBINATION THERAPIES COMPRISING A METTL3 INHIBITOR AND A FURTHER ANTICANCER AGENT” (Storm Therapeutics Limited, priority 2021, published 2024):

Key:
[1] = test system: SKOV3 human ovarian cancer cells; assay: Tumour killing assay (TKA), SKOV3 spheroid / PBMC co-culture; type: cell-based; settings: STM3480 0.05 micromolar, FIG. 1 and 2
Description: This experiment evaluates the effects of human donor Peripheral Blood Mononuclear Cells (PBMCs) to attack and kill fluorescently-labelled tumour cells in a co-culture assay. Briefly, test agents are incubated at different concentrations with SKOV3 human ovarian cancer cells in the presence or absence of human donor PBMCs and tumour growth is monitored continuously by real time imaging of the NucLight Red-labelled SKOV3 cells for several days.
NucLight Red (Incucyte, Essen Biosciences)-transduced SK-OV-3 (SK-OV-3-NLR) cells were transferred into Ultra-low attachment 96 well plates with spontaneous spheroid formation occurring over 48 hours. Peripheral blood mononuclear cells (PBMC) were isolated from healthy single donor buffy coats by density separation. Prior to co-culture of SK-OV-3-NLR spheroids with PBMC, SK-OV-3-NLR spheroids were treated with 10 ng/ml of interferon gamma (IFNγ). All treatments, including STM3480 and Pembrolizumab, were added at the point of co-culture in a final total volume of 200 μl/per well. Assay plates were transferred into an IncuCyte S3 and images were collected every 2 hours for 7 days. Following experimental completion, an analysis definition was applied to quantify the Total NLR Integrated Intensity present on a per well basis. Changes in spheroid size were quantified by plotting Total NLR Integrated Intensity against time.

[2] = test system: CT26 mouse colorectal cancer; assay: Subcutaneous CT26 colorectal cancer syngeneic model, anti-tumour efficacy; type: in vivo; settings: 10 per group
Source text: The in vivo effect of METTL3 inhibition in combination with anti-PD1 immune checkpoint inhibitor was investigated using syngeneic mouse tumour models in immune-competent hosts. Mouse tumour models can be grown in appropriate host strains and are widely used to investigate the effects of therapeutic agents on the immune system and cancer growth. There are a limited range of mouse syngeneic tumour models available, far fewer than human cell lines, and they are widely used in the art to support potential clinical utility of immune stimulatory approaches across multiple indications. We exemplify the potential role of STM3480 and combinations with immune checkpoint inhibitors such as anti-PD-1 antibodies in multiple tumour models including A20 (murine B cell lymphoma), EMT-6 (murine breast cancer) and CT-26 (murine colorectal cancer).
The objective of this study is to assess the anti-tumour efficacy of STM3480 in combination with anti-PD1 in subcutaneous CT26 mouse colorectal cancer model in female BALB/c mice. CT26.WT (CRL-2638) mouse […] cells were cultured in (RPMI—1640+10% FBS+2 mM L-Glutamine) media. […]
Tumours were measured three times a week and tumour volumes estimated using the formula 0.5 (L×W^2) by measuring the tumour in two dimensions using electronic callipers for the duration of the study. […]

Kasumi1 AML cell line = assay: AML cell viability, CellTiter-Glo combination matrix, Kasumi1; type: cell-based
Description: The sensitivity of AML cell lines to combinations of METTL3 inhibitor and standards of care was determined as described. Dose response curves of venetoclax were determined either alone or in the presence of different concentrations of METTL3 inhibitor that are known to be active in cells.
Synergistic interactions occur when the IC50 value decreases in the presence of METTL3 inhibitor. […] Antagonistic interactions occur when the IC50 value increases in the presence of METTL3 inhibitor.
(§1) 24 h before cell treatment, homogenize, stain with Trypan blue and count viable cells using CellOMeter Auto T4. Dilute cells in media at 400 000 cells/ml to ensure an exponential growth the day after.
(§2) On treatment day, homogenize, stain with Trypan blue and count viable cells using CellOMeter Auto T4. Dilute to the proper cell seeding density according to Table 6 in cell media.
(§3) • Dispense drug (see Table 7) and METTL3 inhibitor in semi-log dose-response matrix and DMSO in 384-well plates using D300e Nanodispenser (Tecan). • 6× compound solution preparation: add 40 μL of cell medium in compound-containing plates and homogenize using the ViaFlo device (Integra) • Dispense 30 μl of cell suspension per well in three replicate 384-well white Ultra-Low-Attachment plates (Sbio) using ViaFlow device (Integra) • Transfer 6 μL of the 6× compound solution in each 30 μL cell suspension-containing plate. • Incubate at 37° C. 5% CO2 for 3 to 5 days.
(§4) • Add 35 μL CellTiter-Glo (Promega) in wells (vol/vol) using ViaFlo device (Integra). • Incubate at RT 10 min in the dark, with agitation the first minute, and read luminescence on the Ensight device (Perkin Elmer).
Raw data were converted to % viability by normalization to DMSO controls. IC50 determination was performed using GraphPad Prism and fitting curves to the standard nonlinear regression four parameter equation (Y=Bottom+(Top-Bottom)/(1+(IC50/X)^HillSlope)) least squares method, and synergy was assessed by comparison of IC50 values of the standard of care in the presence or absence of different concentrations of METTL3 inhibitor (see FIGS. 12 to 19).

[3] = test system: FLT3-mutant MOLM-14 AML cell line; assay: AML cell viability, CellTiter-Glo combination matrix, MOLM-14; type: cell-based
Description: as §1, §2, §3, §4
Raw data were converted to % viability by normalization to DMSO controls.

O=C(NCc1ccc2cc(CNCC3CCC3)[nH]c2c1)c1cc(=O)n2ccccc2n1 [STM3480, N-[(2-{[(cyclobutylmethyl)amino]methyl}-1H-indol-6-yl)methyl]-4-oxo-4H-pyrido[1,2-a]pyrimidine-2-carboxamide]
tumour viability (normalized NucLight Red [NLR] fluorescence) against time [1]: greater anti-tumour effect compared to vehicle | Mean tumour volume d28 ([2]; CT26, female BALB/c mice, STM3480 50 mg/kg p.o., anti PD1 10 mg/kg i.p. BIW, up to 3 weeks): 768 mm3 | No. mice with regressions ([2]; CT26): 0 | cell viability with increasing concentrations of METTL3 inhibitor (Kasumi1 AML cell line; Kasumi1, combination with daunorubicin): dose-dependent decrease | interaction with 5′-azacitidine (Kasumi1 AML cell line; Kasumi1 AML cell line): additive | interaction with cytarabine (Kasumi1 AML cell line; Kasumi1 AML cell line): additive | interaction with daunorubicin (Kasumi1 AML cell line; Kasumi1 AML cell line): additive | interaction with venetoclax (Kasumi1 AML cell line; Kasumi1 AML cell line): synergistic | interaction with quizartinib ([3]; FLT3-mutant MOLM-14 AML cell line): additive | cell viability with increasing concentrations of METTL3 inhibitor ([3]; MOLM-14, combination with quizartinib): decreasing viability
